This assay relates to platelet hyper-aggregation induced by ADP. In words: Inhibition of ADP-induced platelet hyperaggregation in vitro (Born's method, aggregometer ELVI 840). The format is cell-based, New Zealand rabbits. The settings on record: Oryctolagus cuniculus, 0.5 h, ADP 20 μg/ml, 100 γ/ml of active compound, rabbit PRP, incubated 30 minutes at 37° C, read-out: Inhibition of platelet hyper-aggregation induced by ADP. The protocol: Two separate centrifugations are effected (at 1000 rpm and at 6000 rpm), thus obtaining PRP ([…]) and PPP ([…]); the first is diluted with the second in order to obtain a platelet concentration of 300,000 per mm^3 (the count is effected in a Buerker apparatus). The compounds with a platelet antiaggregating activity of the present invention are added at the desired concentrations and incubated for 30 minutes at 37° C. with the aggregating agents. […] The various compounds represented by the numbers in the first column are identifiable by the numbers in the second column which refer to the examples described below in this specification.

Counter-ions that a name gives are not always drawn.

For `C=CCc1c(OCC(=O)OCC)c(CN2CCOCC2)cc2c(-c3ccccc3)cc(=O)oc12` [Compound 51, Ethyl ester of [4-phenyl-6-(4-morpholinylmethyl)-8-allylcumarin-7-yl]oxy acetic acid hydrochloride], the inhibition at 100 µg/mL is 37%.
To `CCOC(=O)COc1c(CN2CCOCC2)cc2c(C)c(CCN(CC)CC)c(=O)oc2c1Cl` [Compound 62, Ethyl ester of [3-(2-diethylaminoethyl)-4-methyl-6-(4-morpholinylmethyl)-8-chlorocumarin-7-yl]oxyacetic acid dihydrochloride] belongs 23%; to `C=CCc1c(O)c(CN2CCC(O)CC2)cc2c(C)cc(=O)oc12` [Compound 200, 4-methyl-6-[(4-hydroxy-1-piperidinyl)methyl]-7-hydroxy-8-allylcumarin hydrochloride], 21%; to `CCN(CC)Cc1cc2c(C)cc(=O)oc2c(Cl)c1O` [Compound 76, 4-methyl-6-diethylaminomethyl-7-hydroxy-8-chlorocumarin hydrochloride], 27%.
To `Cc1cc(=O)oc2c(Cl)c(O)c(CN(C)C)cc12` [Compound 132, 4-methyl-6-dimethylaminomethyl-7-hydroxy-8-chlorocumarin hydrochloride] belongs 13%; to `O=c1cc(-c2ccccc2)c2cc(CN3CCOCC3)c(O)c(Cl)c2o1` [Compound 102, 4-phenyl-6-(4-morpholinylmethyl)-7-hydroxy-8-chlorocumarin hydrochloride], 12%.
To `C=CCOc1c(CN2CCOCC2)cc2c(-c3ccccc3)cc(=O)oc2c1CC=C` [Compound 50, 4-phenyl-6-(4-morpholinylmethyl)-7-allyloxy-8-allylcumarin hydrochloride] belongs 25%; to `C=CCOc1c(CN2CCOCC2)cc2c(C)c(CCN(CC)CC)c(=O)oc2c1Cl` [Compound 67, 3-(2-diethylaminoethyl)-4-methyl-6-(4-morpholinylmethyl)-7-allyloxy-8-chlorocumarin hydrochloride], 18%.
Consider `Cc1cc(=O)oc2c(C)c(O)c(CN3CCOCC3)cc12` [Compound 188, 4,8-dimethyl-6-(4-morpholinylmethyl)-7-hydroxycoumarin hydrochloride], for which the inhibition at 100 µg/mL came to 19%.
On to `Cc1cc(=O)oc2c(C)c(O)c(CN(C)C)cc12` [Compound 130, 4,8-dimethyl-6-dimethylaminomethyl-7-hydroxycumarin hydrochloride], for which the inhibition at 100 µg/mL was determined as 29%.
As for `C=CCc1c(O)c(CN2CCOCC2)cc2c(C)cc(=O)oc12` [Compound 25, 4-methyl-6-(4-morpholinylmethyl)-7-hydroxy-8-allylcumarin hydrochlorode], the inhibition at 100 µg/mL is 19%.
To `C=CCc1c(OC(C)(C)C(=O)OCC)c(CN2CCOCC2)cc2c(-c3ccccc3)cc(=O)oc12` [Compound 52, Ethyl ester of 2-[4-phenyl-6-(4-morpholinylmethyl)-8-allylcumarin-7-yl]oxy-2-methylpropionic acid hydrochloride] belongs 22%.
`C=CCc1c(O)c(CN2CCCC2)cc2c(C)cc(=O)oc12` [Compound 117, 4-methyl-6-(1-pyrrolidinylmethyl)-7-hydroxy-8-allylcumarin hydrochloride]: the inhibition at 100 µg/mL turned out to be 44%.
The same measure for `C=CCc1c(OC(C)(C)C(=O)OCC)c(CN2CCOCC2)cc2c(C)cc(=O)oc12` [Compound 29, Ethyl ester of the acid 2-[4-methyl-6-(4-morpholinylmethyl)-8-allylcumarin-7-yl]oxy-2-methylpropionic hydrochloride]: 19%.
As to `CCN(CC)CCc1c(C)c2cc(CN3CCOCC3)c(O)c(Cl)c2oc1=O` [Compound 58, 3-(2-diethylaminoethyl)-4-methyl-6-(4-morpholinylmethyl)-7-hydroxy-8-chlorocumarin dihydrochloride], the inhibition at 100 µg/mL was 25%.
The same measure for `C=CCc1c(O)c(CN2CCCC(O)C2)cc2c(C)cc(=O)oc12` (stereo not shown) [Compound 201, 4-methyl-6-[(3-hydroxy-1-piperidinyl)methyl]-7-hydroxy-8-allylcumarin hydrochloride]: 32%; for `C=CCc1c(O)c(CN2CCCCC2)cc2c(C)cc(=O)oc12` [Compound 124, 4-methyl-6-(1-piperidinylmethyl)-7-hydroxy-8-allylcumarin hydrochloride]: 38%.
To `C=CCc1c(O)c(CN2CCOCC2)cc2c(-c3ccccc3)cc(=O)oc12` [Compound 44, 4-phenyl-6-(4-morpholinylmethyl)-7-hydroxy-8-allylcumarin hydrochloride] belongs 20%; to `CCN(CC)CCc1c(C)c2cc(CN3CCOCC3)c(OC)c(Cl)c2oc1=O` [Compound 105, 3-(2-diethylaminoethyl)-4-methyl-6-(4-morpholinylmethyl)-7-methoxy-8-chlorocumarin dihydrochloride], 28%.
To `CCOC(=O)C(C)(C)Oc1c(CN2CCOCC2)cc2c(C)c(CCN(CC)CC)c(=O)oc2c1Cl` [Compound 68, Ethyl ester of 2-[3-(2-diethylaminoethyl)-4-methyl-6-(4-morpholinylmethyl)-8-chlorocumarin-7-yl]oxy-2-methylpropionic acid dihydrochloride] belongs 41%; to `C=CCc1c(OCC(=O)OCC)c(CN2CCOCC2)cc2c(C)cc(=O)oc12` [Compound 27, Ethyl ester of the acid [4-methyl-6-(4-morpholinylmethyl)-8-allylcumarin-7-yl]oxyacetic], 32%; to `C=CCc1c(O)c(CN2CCN(CCO)CC2)cc2c(-c3ccccc3)cc(=O)oc12` [Compound 49, 4-phenyl-6-[[4-(2-hydroxyethyl)-1-piperazinyl]methyl]-7-hydroxy-8-allylcumarin dihydrochloride], 25%.
Consider `Cc1cc(=O)oc2c(Cl)c(O)c(CN3CCOCC3)cc12` [Compound 69, 4-methyl-6-(4-morpholinylmethyl)-7-hydroxy-8-chlorocumarin hydrochloride], for which the inhibition at 100 µg/mL was 29%.
To `C=CCc1c(O)c(CN(CC)CC)cc2c(C)cc(=O)oc12` [Compound 121, 4-methyl-6-diethylaminomethyl-7-hydroxy-8-allylcumarin hydrochloride] belongs 51%; to `C=CCOc1c(CN2CCOCC2)cc2c(C)cc(=O)oc2c1CC=C` [Compound 28, 4-methyl-6-(4-morpholinylmethyl)-7-allyloxy-8-allylcumarin hydrochloride], 54%.

The term inhibition denotes the relative decrease from the control value, in per cent.

The record behind these values is patent publication US4737517A, “Coumarin derivatives, pharmaceutical compositions containing the same, and the use thereof in the treatment of cancer” (FIDIA, S.p.A., priority 1983, dated 1988).
